Data reported in patent US9243039B2, “Bipartite inhibitors of bacterial RNA polymerase: Sal-target-inhibitor/nucleoside-analog-inhibitor conjugates” (priority 2012, dated 2016).
pIC50: −log10 of the molar value. Read-outs that look alike come from different tables or passages of the source.

Key:
Sal-resistant mutants = conditions: Ebright et al., WO/2012/129173; cited from earlier work
Escherichia coli RNAP = Escherichia coli RNAP (Escherichia coli, UniProt P0A8T7+P0A8V2); assay: Fluorescence-detected RNAP assay, Escherichia coli RNAP; assay type: biochemical; conditions: fluorescent-detected RNAP assays
Method: Fluorescence-detected RNAP assays with Escherichia coli RNAP were performed by a modification of the procedure of Kuhlman et al., 2004 [Kuhlman et al., Anal. Biochem. 324:183-190, 2004]. Reaction mixtures contained (20 μl): […] test compound, 75 nM Escherichia coli RNAP […] holoenzyme, 20 nM 384 by DNA fragment containing the bacteriophage T4 N25 promoter, 100 μM ATP, 100 μM GTP, 100 μM UTP, 100 μM CTP, 50 mM Tris-HCl, pH 8.0, 100 mM KCl, 10 mM MgCl2, 1 mM DTT, 10 μg/ml bovine serum albumin, and 5.5% glycerol. Reaction components other than DNA and NTPs were pre-incubated for 10 min at 37° C. Reactions were carried out by addition of DNA and incubation for 5 min at 37° C., followed by addition of NTPs and incubation for 60 min at 37° C. DNA was removed by addition of 1 μl 5 mM CaCl2 and 2 U DNaseI (Ambion, Inc.), followed by incubation for 90 min at 37° C. RNA was quantified by addition of 100 μl RiboGreen RNA Quantitation Reagent (Invitrogen, Inc.; 1:500 dilution in Tris-HCl, pH 8.0, 1 mM EDTA), followed by incubation for 10 min at 25° C., followed by measurement of fluorescence intensity [excitation wavelength=485 nm and emission wavelength=535 nm; QuantaMaster QM1 spectrofluorometer (PTI, Inc.)].
(§1) Half-maximal inhibitory concentrations (IC50s) were calculated by non-linear regression in SigmaPlot (SPSS, Inc.).

human RNAP I/II/III = assay: Radiochemical assay with human RNAP I, II and III (HeLaScribe nuclear extract); assay type: biochemical; conditions: for inhibition of human RNAP I, II, and III: in words
Method: Radiochemical assays with human RNAP I, II, and III were performed essentially as described [Sawadogo and Roeder, Cell 43:165-75, 1985]. Reaction mixtures contained (20 μl): 0-100 μM test compound, 8 U HeLaScribe Nuclear Extract (Promega, Inc.), 1 μg human placental DNA (Sigma-Aldrich), 400 μM ATP, 400 μM [α^32P]UTP (0.11 Bq/fmol), 400 μM CTP, 400 μM GTP, 50 mM Tris-HCl, pH 8.0, 7 mM HEPES-NaOH, 70 mM (NH4)2SO4, 50 mM KCl, 12 mM MgCl2, 5 mM DTT, 0.1 mM EDTA, 0.08 mM phenylmethylsulfonyl fluoride, and 16% glycerol. Reaction components other than DNA and NTPs were pre-incubated 10 min at 30° C., DNA was added and reaction mixtures were incubated 15 min at 30° C., NTPs were added and reaction mixtures were incubated 60 min at 30° C. Reaction mixtures were spotted on DE81 filter discs (Whatman, Inc.; pre-wetted with water) and incubated 1 min at room temperature. Filters were washed with 3×3 ml Na2HPO4, 2×3 ml water, and 3 ml ethanol, using a filter manifold (Hoefer, Inc.). Filters were placed in scintillation vials containing 10 ml Scintiverse BD Cocktail (Thermo Fisher, Inc.), and radioactivity was quantified by scintillation counting (LS6500; Beckman-Coulter, Inc.).
as §1

[1] = system: Escherichia coli D21f2toIC; assay: Antibacterial activity, broth microdilution, Escherichia coli D21f2tolC; assay type: cell-based; conditions: minimal concentration resulting in ≧50% inhibition of bacterial growth
Description: (§2) Antibacterial activity was quantified using broth microdilution [Clinical and Laboratory Standards Institute (CLSUNCCLS), Methods for Dilution Antimicrobial Susceptibility Tests for Bacteria That Grow Aerobically; Approved Standard, Eighth Edition. CLIS Document M07-A8 (CLIS, Wayne Pa.), 2009]. Assays with Enterobacter cloacae ATCC 13047, Pseudomonas aeruginosa ATCC10145, and Escherichia coli D21f2to1C, employed a starting cell density of 2-5×10^5 cfu/ml, Mueller Hinton II cation adjusted broth (BD Biosciences, Inc.), and an air atmosphere. Assays with Haemophilus influenzae ATCC49247 and Neisseria gonorrhoeae ATCC 19424 employed a starting cell density of 2-5×10^5 cfu/ml, Haemophilus Test Medium broth (Barry et al., 1993) and a 5% CO2/95% air atmosphere. MIC50 was defined as the minimal concentration resulting in ≧50% inhibition of bacterial growth.

[2] = system: Enterobacter cloacae ATCC 13047; assay: Antibacterial activity, broth microdilution, Enterobacter cloacae; assay type: cell-based; conditions: for antibacterial activity against Enterobacter cloacae: in words, Gram-negative bacterial pathogen; for MIC50 Enterobacter cloacae ATCC 13047: minimal concentration resulting in ≧50% inhibition of bacterial growth
Description: as §2

Vero E6 ATCC CRL1586 = assay: Cytotoxicity to mammalian cells in culture (CellTiter96); assay type: cell-based; conditions: for inhibition of growth of mammalian cells in culture: in words; for MIC50 Vero E6 ATCC CRL1586: mammalian cells in culture
Description: MICs for mammalian cells (Vero E6) in culture were quantified using CellTiter96 assay (Promega. Inc.; procedures as specified by the manufacturer). Screening data for SalA and SalB (compounds 1 and 2) and representative compounds of this invention (compounds 3-9) are presented in Tables 1-2: […]

Haemophilus influenzae = assay: Antibacterial activity, broth microdilution, Haemophilus influenzae; assay type: cell-based; conditions: in words, Gram-negative bacterial pathogen
Description: as §2

Neisseria gonorrhoeae = assay: Antibacterial activity, broth microdilution, Neisseria gonorrhoeae; assay type: cell-based; conditions: in words, Gram-negative bacterial pathogen
Description: as §2

Pseudomonas aeruginosa = assay: Antibacterial activity, broth microdilution, Pseudomonas aeruginosa; assay type: cell-based; conditions: in words, Gram-negative bacterial pathogen
Description: as §2

RNAP = assay: Mechanism of inhibition of RNAP by Sal; assay type: biochemical; conditions: in words
[3] = system: mutants resistant to other RNAP inhibitors; conditions: disclosed herein
[4] = system: Gram-positive and Gram-negative bacterial RNAP; conditions: in words, reported previously (Miao et al. 1997); cited from earlier work
[5] = system: Gram-positive bacterial pathogens; conditions: in words, reported previously (Trischman 1994; Moore 1999); cited from earlier work
[6] = system: mutants resistant to other RNAP inhibitors; conditions: Ebright et al., WO/2012/129173; cited from earlier work
[7] = system: Gram-positive and Gram-negative bacterial RNAP; assay: Inhibition of bacterial RNAP in vitro (radiochemical RNAP assays); assay type: biochemical; conditions: in words, disclosed herein
Method: Radiochemical RNAP assays with Escherichia coli RNAP and Staphylococcus aureus RNAP were performed as follows: Reaction mixtures contained (10 μl): 0-100 μM test compound, bacterial RNAP holoenzyme [75 nM Escherichia coli RNAP holoenzyme (prepared as in Mukhopadhyay et al., Meths. Enzymol. 371:144-159, 2003) or 75 nM Staphylococcus aureus RNAP core enzyme and 300 nM Staphylococcus aureus σ^A (prepared as in Srivastava et al., Curr. Opin. Microbiol. 14:532-543, 2011)], 20 nM DNA fragment N25-lacUV5-14 [positions −100 to −1 of the bacteriophage T5 N25 promoter followed by positions +1 to +29 of the lacUV5(+10A; +15C) promoter; prepared by PCR amplification of a synthetic nontemplate-strand oligodeoxyribonucleotide], 0.5 mM ApA, 100 μM [α^32P]UTP (0.2 Bq/fmol), 100 μM ATP, and 100 μM GTP in TB (50 mM Tris-HCl, pH 7.9, 100 mM KCl, 10 mM MgCl2, 1 mM DTT, 100 μg/ml bovine serum albumin, and 5% glycerol). […] Products were applied to 7 M urea 15% polyacrylamide (19:1 acrylamide:bisacrylamide) slab gels (Bio-Rad), electrophoresed in TBE (90 mM Tris-borate, pH 8.0, and 2 mM EDTA), and analyzed by storage-phosphor scanning (Typhoon; GE Healthcare, Inc.).
as §1

Sequence of Escherichia coli RNAP (P0A800 whole entry, the tested form may be a part): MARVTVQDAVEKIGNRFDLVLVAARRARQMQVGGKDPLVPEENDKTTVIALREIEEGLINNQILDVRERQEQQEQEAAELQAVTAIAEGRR
Sequence of Escherichia coli RNAP (P00579 whole entry, further chain, the tested form may be a part): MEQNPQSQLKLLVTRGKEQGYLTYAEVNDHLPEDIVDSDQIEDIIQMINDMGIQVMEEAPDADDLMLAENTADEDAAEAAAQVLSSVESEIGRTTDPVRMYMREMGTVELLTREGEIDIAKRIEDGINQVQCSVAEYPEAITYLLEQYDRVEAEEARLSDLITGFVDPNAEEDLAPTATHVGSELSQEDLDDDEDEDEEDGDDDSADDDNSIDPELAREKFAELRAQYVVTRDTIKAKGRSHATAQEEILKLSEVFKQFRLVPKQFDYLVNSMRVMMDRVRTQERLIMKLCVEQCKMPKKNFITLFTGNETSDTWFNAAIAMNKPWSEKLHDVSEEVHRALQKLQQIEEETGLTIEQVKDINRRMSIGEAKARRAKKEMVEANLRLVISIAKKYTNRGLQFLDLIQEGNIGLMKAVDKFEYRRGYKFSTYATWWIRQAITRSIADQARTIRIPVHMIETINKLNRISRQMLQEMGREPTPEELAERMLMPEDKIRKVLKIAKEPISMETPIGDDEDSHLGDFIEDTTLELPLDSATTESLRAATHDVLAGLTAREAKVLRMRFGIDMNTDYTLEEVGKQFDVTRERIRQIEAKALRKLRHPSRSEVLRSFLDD
Sequence of Escherichia coli RNAP (P0A8V2 whole entry, the tested form may be a part): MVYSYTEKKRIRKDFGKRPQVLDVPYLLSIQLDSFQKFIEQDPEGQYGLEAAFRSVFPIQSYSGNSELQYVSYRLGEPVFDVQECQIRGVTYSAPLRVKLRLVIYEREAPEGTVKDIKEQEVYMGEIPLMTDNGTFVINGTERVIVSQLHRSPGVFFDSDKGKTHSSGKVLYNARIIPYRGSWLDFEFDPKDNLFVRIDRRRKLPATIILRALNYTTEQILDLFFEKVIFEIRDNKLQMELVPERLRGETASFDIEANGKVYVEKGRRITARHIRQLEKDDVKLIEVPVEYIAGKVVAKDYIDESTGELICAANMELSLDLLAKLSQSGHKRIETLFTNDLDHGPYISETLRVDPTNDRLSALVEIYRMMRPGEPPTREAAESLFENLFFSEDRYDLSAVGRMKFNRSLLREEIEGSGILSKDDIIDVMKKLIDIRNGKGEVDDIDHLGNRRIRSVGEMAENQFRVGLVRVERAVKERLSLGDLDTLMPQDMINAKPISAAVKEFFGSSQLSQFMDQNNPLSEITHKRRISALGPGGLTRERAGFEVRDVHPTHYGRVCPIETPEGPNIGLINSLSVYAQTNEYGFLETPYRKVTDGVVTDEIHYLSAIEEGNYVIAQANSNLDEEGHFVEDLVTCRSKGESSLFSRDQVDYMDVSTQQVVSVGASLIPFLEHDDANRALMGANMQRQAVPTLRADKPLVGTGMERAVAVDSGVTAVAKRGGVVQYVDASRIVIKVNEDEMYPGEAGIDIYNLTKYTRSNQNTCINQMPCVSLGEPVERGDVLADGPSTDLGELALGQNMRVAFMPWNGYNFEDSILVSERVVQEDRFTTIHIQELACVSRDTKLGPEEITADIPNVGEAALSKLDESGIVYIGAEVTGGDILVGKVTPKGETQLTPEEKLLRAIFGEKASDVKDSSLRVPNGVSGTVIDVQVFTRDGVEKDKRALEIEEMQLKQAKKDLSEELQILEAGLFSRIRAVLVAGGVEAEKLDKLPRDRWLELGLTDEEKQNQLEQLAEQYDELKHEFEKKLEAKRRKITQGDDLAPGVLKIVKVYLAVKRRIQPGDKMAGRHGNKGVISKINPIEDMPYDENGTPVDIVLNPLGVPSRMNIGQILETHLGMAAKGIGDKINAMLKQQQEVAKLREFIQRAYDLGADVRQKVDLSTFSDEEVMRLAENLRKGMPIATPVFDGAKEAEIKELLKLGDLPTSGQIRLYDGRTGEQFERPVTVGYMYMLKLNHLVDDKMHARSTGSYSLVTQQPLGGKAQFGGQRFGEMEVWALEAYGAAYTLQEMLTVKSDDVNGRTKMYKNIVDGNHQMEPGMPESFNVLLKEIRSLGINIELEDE
Sequence of Escherichia coli RNAP (P0A8T7 whole entry, the tested form may be a part): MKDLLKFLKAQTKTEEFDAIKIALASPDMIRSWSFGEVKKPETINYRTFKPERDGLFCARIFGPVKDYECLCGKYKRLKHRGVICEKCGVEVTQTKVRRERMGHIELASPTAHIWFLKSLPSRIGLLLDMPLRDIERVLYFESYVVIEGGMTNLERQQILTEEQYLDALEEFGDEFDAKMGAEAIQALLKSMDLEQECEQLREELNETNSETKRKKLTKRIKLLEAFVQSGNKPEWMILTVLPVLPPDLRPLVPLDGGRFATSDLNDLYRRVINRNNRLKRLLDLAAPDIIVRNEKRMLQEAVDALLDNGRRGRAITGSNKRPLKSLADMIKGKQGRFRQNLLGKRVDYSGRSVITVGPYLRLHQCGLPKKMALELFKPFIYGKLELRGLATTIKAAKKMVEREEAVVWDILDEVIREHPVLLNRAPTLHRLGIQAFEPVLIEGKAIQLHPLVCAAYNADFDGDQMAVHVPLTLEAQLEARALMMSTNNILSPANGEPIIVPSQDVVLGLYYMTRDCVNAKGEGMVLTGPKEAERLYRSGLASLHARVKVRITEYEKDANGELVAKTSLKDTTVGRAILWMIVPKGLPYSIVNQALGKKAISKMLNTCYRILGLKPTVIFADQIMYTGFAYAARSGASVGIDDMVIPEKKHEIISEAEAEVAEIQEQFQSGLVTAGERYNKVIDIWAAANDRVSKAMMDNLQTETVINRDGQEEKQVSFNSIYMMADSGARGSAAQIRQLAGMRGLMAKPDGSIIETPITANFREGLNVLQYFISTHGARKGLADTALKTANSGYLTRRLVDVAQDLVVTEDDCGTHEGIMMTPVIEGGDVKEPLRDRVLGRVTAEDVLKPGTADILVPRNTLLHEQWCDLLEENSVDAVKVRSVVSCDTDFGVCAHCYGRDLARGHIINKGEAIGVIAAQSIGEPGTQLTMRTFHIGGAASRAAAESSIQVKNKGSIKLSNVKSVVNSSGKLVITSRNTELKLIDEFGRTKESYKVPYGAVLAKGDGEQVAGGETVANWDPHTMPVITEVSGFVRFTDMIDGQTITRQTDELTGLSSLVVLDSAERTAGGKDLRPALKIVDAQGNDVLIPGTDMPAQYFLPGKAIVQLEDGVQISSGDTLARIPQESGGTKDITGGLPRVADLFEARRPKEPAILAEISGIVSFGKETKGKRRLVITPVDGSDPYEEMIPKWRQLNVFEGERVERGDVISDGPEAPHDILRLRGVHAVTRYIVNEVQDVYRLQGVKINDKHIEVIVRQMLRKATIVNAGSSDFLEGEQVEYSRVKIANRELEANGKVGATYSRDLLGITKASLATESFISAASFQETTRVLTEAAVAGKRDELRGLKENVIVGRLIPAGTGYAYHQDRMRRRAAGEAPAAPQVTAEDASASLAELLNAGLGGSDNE
Sequence of Escherichia coli RNAP (P0A7Z4 whole entry, further chain, the tested form may be a part): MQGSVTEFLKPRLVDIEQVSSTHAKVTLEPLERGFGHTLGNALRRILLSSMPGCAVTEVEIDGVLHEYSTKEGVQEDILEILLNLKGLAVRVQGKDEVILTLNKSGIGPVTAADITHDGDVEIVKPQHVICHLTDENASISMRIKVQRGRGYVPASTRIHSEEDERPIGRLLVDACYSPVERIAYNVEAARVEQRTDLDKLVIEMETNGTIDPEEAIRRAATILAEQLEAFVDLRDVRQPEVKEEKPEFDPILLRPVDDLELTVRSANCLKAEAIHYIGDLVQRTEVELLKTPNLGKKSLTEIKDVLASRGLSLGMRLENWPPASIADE

Molecule: ONC(=Nc1ccccc1)c1cccc(C(F)(F)F)c1 [CBR703]
- cross-resistance of Sal-resistant mutants to the compound (Sal-resistant mutants): not cross-resistant

Molecule: Salinamide A [SalA (1)]
- pIC50 (Escherichia coli RNAP): 6.00
- pIC50 (human RNAP I/II/III): < 4.00
- inhibition of human RNAP I, II, and III (human RNAP I/II/III): do not detectably inhibit
- MIC50 Escherichia coli D21f2toIC [1]: 0.024 µg/mL
- antibacterial activity against Enterobacter cloacae [2]: exhibit antibacterial activity
- MIC50 Enterobacter cloacae ATCC 13047 [2]: 1.56 µg/mL
- inhibition of growth of mammalian cells in culture (Vero E6 ATCC CRL1586): do not detectably inhibit growth
- MIC50 Vero E6 ATCC CRL1586 (Vero E6 ATCC CRL1586): >100 µg/mL
- antibacterial activity against Haemophilus influenzae (Haemophilus influenzae): exhibit antibacterial activity
- antibacterial activity against Neisseria gonorrhoeae (Neisseria gonorrhoeae): exhibit antibacterial activity
- antibacterial activity against Pseudomonas aeruginosa (Pseudomonas aeruginosa): exhibit antibacterial activity
- inhibition of formation of the RNAP-promoter open complex in transcription initiation (RNAP): does not inhibit
- inhibition of nucleotide addition in both transcription initiation and transcription elongation (RNAP): inhibits
- inhibition of wild-type RNAP versus RNAP-derivative having a deletion of the trigger loop (RNAP): equal extents
- mode of transcription inhibition with respect to NTP substrate (RNAP): noncompetitive
- cross-resistance to Sal of streptolydigin-resistant, myxopyronin-resistant, and lipiarmycin-resistant mutants [3]: do not exhibit cross-resistance
- inhibition of Gram-positive and Gram-negative bacterial RNAP in vitro [4]: inhibits
- antibacterial activity against Gram-positive bacterial pathogens [5]: exhibit antibacterial activity
- cross-resistance to Sal of CBR703-resistant mutants [6]: not cross-resistant
- cross-resistance to Sal of rifamycin-resistant mutants [6]: not cross-resistant

Molecule: salinamide B [SalB (2)]
- pIC50 (Escherichia coli RNAP): 6.00
- pIC50 (human RNAP I/II/III): < 4.00
- inhibition of human RNAP I, II, and III (human RNAP I/II/III): do not detectably inhibit
- MIC50 Escherichia coli D21f2toIC [1]: 0.098 µg/mL
- antibacterial activity against Enterobacter cloacae [2]: exhibit antibacterial activity
- MIC50 Enterobacter cloacae ATCC 13047 [2]: 6.25 µg/mL
- inhibition of growth of mammalian cells in culture (Vero E6 ATCC CRL1586): do not detectably inhibit growth
- MIC50 Vero E6 ATCC CRL1586 (Vero E6 ATCC CRL1586): >100 µg/mL
- inhibition of Gram-positive and Gram-negative bacterial RNAP in vitro [7]: inhibits
- antibacterial activity against Haemophilus influenzae (Haemophilus influenzae): exhibit antibacterial activity
- antibacterial activity against Neisseria gonorrhoeae (Neisseria gonorrhoeae): exhibit antibacterial activity
- antibacterial activity against Pseudomonas aeruginosa (Pseudomonas aeruginosa): exhibit antibacterial activity
- antibacterial activity against Gram-positive bacterial pathogens [5]: exhibit antibacterial activity
